Data reported in PubChem BioAssay (NCI).
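48-hour exposure; five concentrations; linearly interpolated endpoints. Definition used: TGI = concentration required for complete inhibition of growth.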

Tests used:
Experiment in all cases: growth of human tumour cells (NCI), 48 h
SK-MEL-5 melanoma = tested on: SK-MEL-5 melanoma
OVCAR-4 ovarian = tested on: OVCAR-4 ovarian
HCT-15 colon = tested on: HCT-15 colon
A498 renal = tested on: A498 renal
NCI-H23 lung = tested on: NCI-H23 lung
SN12C renal = tested on: SN12C renal
CCRF-CEM leukemia = tested on: CCRF-CEM leukemia
NCI-H522 lung = tested on: NCI-H522 lung
M14 melanoma = tested on: M14 melanoma
SF-295 CNS = tested on: SF-295 CNS
TK-10 renal = tested on: TK-10 renal
HOP-62 NSCLC = tested on: HOP-62 NSCLC
U251 CNS = tested on: U251 CNS
SK-MEL-2 melanoma = tested on: SK-MEL-2 melanoma
HS 578T breast = tested on: HS 578T breast
K-562 leukemia = tested on: K-562 leukemia
RXF 393 renal = tested on: RXF 393 renal
UACC-257 melanoma = tested on: UACC-257 melanoma
A549 NSCLC = tested on: A549 NSCLC
SF-268 CNS = tested on: SF-268 CNS
MDA-MB-231 breast = tested on: MDA-MB-231 breast
IGROV1 ovarian = tested on: IGROV1 ovarian
NCI-H460 lung = tested on: NCI-H460 lung
NCI/ADR-RES ovarian = tested on: NCI/ADR-RES ovarian
MDA-N = tested on: MDA-N
OVCAR-3 ovarian = tested on: OVCAR-3 ovarian
HL-60(TB) leukemia = tested on: HL-60(TB) leukemia
HT29 colon = tested on: HT29 colon
SW-620 colon = tested on: SW-620 colon
BT-549 breast = tested on: BT-549 breast
OVCAR-5 ovarian = tested on: OVCAR-5 ovarian
T-47D breast = tested on: T-47D breast
MALME-3M melanoma = tested on: MALME-3M melanoma
UO-31 renal = tested on: UO-31 renal
ACHN renal = tested on: ACHN renal
PC-3 prostate = tested on: PC-3 prostate
HCT-116 colon = tested on: HCT-116 colon
NCI-H226 lung = tested on: NCI-H226 lung
EKVX NSCLC = tested on: EKVX NSCLC
786-0 renal = tested on: 786-0 renal
HOP-92 NSCLC = tested on: HOP-92 NSCLC
LOX IMVI melanoma = tested on: LOX IMVI melanoma
SK-MEL-28 melanoma = tested on: SK-MEL-28 melanoma
SNB-19 CNS = tested on: SNB-19 CNS
UACC-62 melanoma = tested on: UACC-62 melanoma
MOLT-4 leukemia = tested on: MOLT-4 leukemia
MDA-MB-435 = tested on: MDA-MB-435
OVCAR-8 ovarian = tested on: OVCAR-8 ovarian
SR leukemia = tested on: SR leukemia
SK-OV-3 ovarian = tested on: SK-OV-3 ovarian
MCF7 breast = tested on: MCF7 breast
COLO 205 colon = tested on: COLO 205 colon
HCC-2998 colon = tested on: HCC-2998 colon
SNB-75 CNS = tested on: SNB-75 CNS
RPMI-8226 leukemia = tested on: RPMI-8226 leukemia
SF-539 CNS = tested on: SF-539 CNS
CAKI-1 renal = tested on: CAKI-1 renal
KM12 colon = tested on: KM12 colon
DU-145 prostate = tested on: DU-145 prostate

COc1cc(NCCC(=O)O)c2ncccc2c1
TGI (SK-MEL-5 melanoma): > 100000 nM
TGI (OVCAR-4 ovarian): > 100000 nM
TGI (HCT-15 colon): > 100000 nM
TGI (A498 renal): > 100000 nM
TGI (NCI-H23 lung): > 100000 nM
TGI (SN12C renal): > 100000 nM
TGI (CCRF-CEM leukemia): > 100000 nM
TGI (NCI-H522 lung): > 100000 nM
TGI (M14 melanoma): > 100000 nM
TGI (SF-295 CNS): > 100000 nM
TGI (TK-10 renal): > 100000 nM
TGI (HOP-62 NSCLC): > 100000 nM
TGI (U251 CNS): > 100000 nM
TGI (SK-MEL-2 melanoma): > 100000 nM
TGI (HS 578T breast): > 100000 nM
TGI (K-562 leukemia): > 100000 nM
TGI (RXF 393 renal): > 100000 nM
TGI (UACC-257 melanoma): > 100000 nM
TGI (A549 NSCLC): > 100000 nM
TGI (SF-268 CNS): > 100000 nM
TGI (MDA-MB-231 breast): > 100000 nM
TGI (IGROV1 ovarian): > 100000 nM
TGI (NCI-H460 lung): > 100000 nM
TGI (NCI/ADR-RES ovarian): > 100000 nM
TGI (MDA-N): > 100000 nM
TGI (OVCAR-3 ovarian): > 100000 nM
TGI (HL-60(TB) leukemia): > 100000 nM
TGI (HT29 colon): > 100000 nM
TGI (SW-620 colon): > 100000 nM
TGI (BT-549 breast): > 100000 nM
TGI (OVCAR-5 ovarian): > 100000 nM
TGI (T-47D breast): > 100000 nM
TGI (MALME-3M melanoma): > 100000 nM
TGI (UO-31 renal): > 100000 nM
TGI (ACHN renal): > 100000 nM
TGI (PC-3 prostate): > 100000 nM
TGI (HCT-116 colon): > 100000 nM
TGI (NCI-H226 lung): > 100000 nM
TGI (EKVX NSCLC): > 100000 nM
TGI (786-0 renal): > 100000 nM
TGI (HOP-92 NSCLC): > 100000 nM
TGI (LOX IMVI melanoma): > 100000 nM
TGI (SK-MEL-28 melanoma): > 100000 nM
TGI (SNB-19 CNS): > 100000 nM
TGI (UACC-62 melanoma): > 100000 nM
TGI (MOLT-4 leukemia): > 100000 nM
TGI (MDA-MB-435): > 100000 nM
TGI (OVCAR-8 ovarian): > 100000 nM
TGI (SR leukemia): > 100000 nM

CC(=O)OC1CC(OC2C(O)CC(OC3C(O)CC(OC4CCC5(C)C(CCC6C5CCC5(C)C(C7=CC(=O)OC7)CCC65O)C4)OC3C)OC2C)OC(C)C1OC1OC(CO)C(O)C(O)C1O (configuration not stated)
TGI (SK-MEL-5 melanoma): 107 nM
TGI (OVCAR-4 ovarian): 162 nM
TGI (HCT-15 colon): 67.9 nM
TGI (SK-OV-3 ovarian): 186 nM
TGI (A498 renal): 131 nM
TGI (NCI-H23 lung): 23.3 nM
TGI (SN12C renal): 286 nM
TGI (CCRF-CEM leukemia): > 100000 nM
TGI (NCI-H522 lung): 29.1 nM
TGI (MCF7 breast): 536 nM
TGI (M14 melanoma): 188 nM
TGI (SF-295 CNS): 142 nM
TGI (TK-10 renal): 149 nM
TGI (HOP-62 NSCLC): < 15.6 nM
TGI (U251 CNS): 137 nM
TGI (SK-MEL-2 melanoma): 245 nM
TGI (COLO 205 colon): 168 nM
TGI (HS 578T breast): 92.6 nM
TGI (K-562 leukemia): > 100000 nM
TGI (HCC-2998 colon): 290 nM
TGI (RXF 393 renal): 101 nM
TGI (UACC-257 melanoma): 422 nM
TGI (SNB-75 CNS): 249 nM
TGI (A549 NSCLC): 22.1 nM
TGI (SF-268 CNS): 129 nM
TGI (MDA-MB-231 breast): 2980 nM
TGI (RPMI-8226 leukemia): 7430 nM
TGI (IGROV1 ovarian): 289 nM
TGI (NCI-H460 lung): 24.5 nM
TGI (NCI/ADR-RES ovarian): 58.1 nM
TGI (MDA-N): 152 nM
TGI (OVCAR-3 ovarian): 88.3 nM
TGI (HL-60(TB) leukemia): 82.7 nM
TGI (HT29 colon): 171 nM
TGI (SF-539 CNS): 35.2 nM
TGI (CAKI-1 renal): < 32.1 nM
TGI (SW-620 colon): 148 nM
TGI (BT-549 breast): 98.4 nM
TGI (OVCAR-5 ovarian): 116 nM
TGI (T-47D breast): 344 nM
TGI (MALME-3M melanoma): 112 nM
TGI (UO-31 renal): 130 nM
TGI (KM12 colon): 310 nM
TGI (ACHN renal): 94.2 nM
TGI (PC-3 prostate): 159 nM
TGI (HCT-116 colon): 47.2 nM
TGI (NCI-H226 lung): 241 nM
TGI (EKVX NSCLC): 53.6 nM
TGI (786-0 renal): 59.8 nM
TGI (HOP-92 NSCLC): 234 nM
TGI (DU-145 prostate): 48.9 nM
TGI (LOX IMVI melanoma): 68.5 nM
TGI (SK-MEL-28 melanoma): 592 nM
TGI (SNB-19 CNS): 348 nM
TGI (UACC-62 melanoma): 334 nM
TGI (MOLT-4 leukemia): > 100000 nM
TGI (MDA-MB-435): 172 nM
TGI (OVCAR-8 ovarian): 139 nM
